Experimental data published in patent publication US20170319661A1, “Methods and Pharmaceutical Compositions Using Orexins (OXA, OXB) for the Treatment of Prostate Cancers” (INSERM (Institut National de la Sante et de la Recherche …, priority 2014, published 2017).
“Also recorded” adds a separate entry of the source.

How the values were obtained:
Format in all cases: cell-based, human
DU145 cells [1] = test: CellTiter-Blue cell viability / growth of DU145 cells; conditions: native DU145 cells, 10^-6 M, 3 days
Description: (§1) Two human-derived CaP cell lines were used, i.e. the androgen-responsive cell line LNCaP, and the androgen-unresponsive cell line DU145 as well as the colorectal adenocarcinoma HT-29 cell line. The three cell lines were purchased from American Type Culture Collection (ATCC, Rockville, Md.). The LNCaP cells were maintained in RPMI 1640 medium supplemented with 10% fetal bovine serum (FBS), 1% penicillin/streptomycin and 1% glutamine (complete medium). The DU145 cells were maintained in Dulbecco modified Eagle's minimal essential medium (DMEM) supplemented with 10% FBS and 1% penicillin/streptomycin (complete medium). The HT-29 cells were maintained in DMEM supplemented with 10% FBS, 1% penicillin/streptomycin and 1% glutamine. […]
(§2) Cell viability was determined by using the CellTiter-Blue® assay (Promega, Charbonnières, France). Cell apoptosis was quantified by evaluating the enzymatic activities of Caspase 3/7 by using the Apo-ONE® Homogeneous Caspase-3/7 Assay (promega). Briefly, the enzymes were measured in intact and differentiated DU145 culture cells after a 3-days incubation with OxA or OxB (10^-6M) in 96-well plates. The cells were incubated with fluorogenic peptide specific to caspase 3 and 7 enzymes, and detection of fluorescent product over time was monitored in a spectrofluorometer Flex Station 3 (Molecular Devices, St. Grégoire, France) at 485 nm excitation and 527 nm emission. […]

DU145 cells [2] = test: Apo-ONE Homogeneous Caspase-3/7 apoptosis assay in DU145 cells (native or neuroendocrine-differentiated); conditions: 10^-6 M, 3 days
Description: as §1, §2

HT-29 cells [3] = test: Cell viability / growth of HT-29 cells
Description: as §1, §2

HT-29 cells [4] = test: Apo-ONE Homogeneous Caspase-3/7 apoptosis assay in HT-29 cells (positive control); conditions: 10^-6 M

Orexin-B [OxB] was tested, and the cell growth (DU145 cells [1]) was “increased cell growth”, the “apoptosis (Caspase 3/7 activity)” value (DU145 cells [2]; DU145 cells submitted to neuroendocrine differentiation (db-cAMP 1 mM/IBMX 0.1 mM)) was “promote cell death” and the “apoptosis (Caspase 3/7 activity)” value (DU145 cells [2]; native DU145 cells) was “did not alter apoptosis; also recorded: has no effect on the apoptosis rate”. The cell growth (HT-29 cells [3]) was “inhibited cell growth” and the “apoptosis (Caspase 3/7 activity)” value (HT-29 cells [4]) was “promoted significantly the apoptosis”.
